Results published in US20260284207A1, “COMPOUND FOR USE AS A PEPTIDE BINDER SPECIFICALLY BINDING TO THE UBIQUITIN LIGASE ADAPTER FBXO31” (ETH ZÜRICH, priority 2022, published 2026).
fluorescein = N-terminal fluorescein label, coupled as FITC

Key:
K562 cells = experiment: Fluorescent reporter protein stability assay in nucleofected K562 cells; assay type: cell-based, human; conditions: sfGFP carrying a primary C-terminal amide
Experimental: HEK293T cells were cultured in DMEM containing Glutamax (Thermo Fisher Scientific) and K562 cells were cultured in RPMI 1640 containing Glutamax (Thermo Fisher Scientific) under standard conditions. Growth media were further supplemented with 10% (v/v) Fetal Bovine Serum (Thermo Fisher Scientific) and 100 U/ml Penicillin-Streptomycin (Thermo Fisher Scientific). Stably transduced cells were selected using 2 μg/ml Puromycin (Thermo Fisher Scientific), 500 μg/ml Geneticin (Thermo Fisher Scientific) or 10 μg/ml Blasticidin (Thermo Fisher Scientific) starting two days after transduction. Induction of doxycycline-dependent vectors was performed using 500 ng/ml doxycycline (Merck) every 48 hours. […]
For measuring stability of recombinant or semi-synthetic proteins, 1.5-2.0×10^5 cells were nucleofected with 200 pmol of protein in 20 μl cuvettes using a 4D nucleofector device (Lonza) to according the manufacturer's recommendations. Following protein delivery, cells were left to recover at 37° C. for 30-45 minutes before measuring initial mean fluorescence intensity values (to) on a Attune N×T Flow Cytometer (Thermo Fisher Scientific). […] Baseline-fluorescence values of mock nucleofected cells receiving no protein were measured and subtracted for each time point and baseline-corrected fluorescence values were normalized to t0. […]

FBXO31 = molecular target: T1, FBXO31 (Homo sapiens, UniProt Q5XUX0); experiment: Competitive fluorescence polarization anisotropy (displacement of fluorescent peptide probes); assay type: binding; conditions: probes FL-lib-SVV-NH2, FL-CycD1-NH2, FL-Pep2-NH2; 2 nM probe, 200 nM FBXO31
T1 construct: histidine tag (Ulp1-cleavable) (cleaved yes); made in house; host or cells: bacteria (pET28b expression vector)
T1 sequence (Q5XUX0 whole entry): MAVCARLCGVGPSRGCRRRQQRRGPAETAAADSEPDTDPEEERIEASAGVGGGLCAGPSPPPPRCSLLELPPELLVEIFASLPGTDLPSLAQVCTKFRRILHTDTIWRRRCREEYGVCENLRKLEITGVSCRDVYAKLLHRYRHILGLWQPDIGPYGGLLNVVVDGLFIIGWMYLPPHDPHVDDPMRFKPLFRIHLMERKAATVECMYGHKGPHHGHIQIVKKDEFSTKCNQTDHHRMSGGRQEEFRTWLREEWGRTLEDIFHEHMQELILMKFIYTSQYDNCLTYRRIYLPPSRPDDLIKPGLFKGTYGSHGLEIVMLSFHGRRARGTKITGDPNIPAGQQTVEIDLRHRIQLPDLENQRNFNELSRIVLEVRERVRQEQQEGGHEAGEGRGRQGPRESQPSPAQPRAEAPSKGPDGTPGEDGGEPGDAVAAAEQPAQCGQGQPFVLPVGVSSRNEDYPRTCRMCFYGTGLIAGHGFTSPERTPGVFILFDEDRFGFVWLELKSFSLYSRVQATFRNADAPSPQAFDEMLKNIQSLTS
T1 sequence (P63208 whole entry partner): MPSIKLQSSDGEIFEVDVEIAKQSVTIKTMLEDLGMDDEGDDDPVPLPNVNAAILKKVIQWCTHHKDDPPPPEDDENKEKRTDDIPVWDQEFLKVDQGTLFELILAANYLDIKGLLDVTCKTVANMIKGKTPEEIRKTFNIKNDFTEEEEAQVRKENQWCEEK
Experimental: To test whether a lower molecular weight probe could be derived based on these rules, the C-terminally amidated tripeptide Ser-Val-Val-NH2 (302.37 g/mol) was tested.
Increasing concentrations of recombinant FBXO31/SKP1 complexes were mixed with 20 nM fluorescein-labeled peptides in FPA-buffer (150 mM NaCl, 25 mM HEPES, pH 7.5) and incubated for 30 minutes at room temperature. Fluorescence polarization was measured on a Victor Nivo Plate Reader (Perkin Elmer). Following subtraction of baseline signal, polarization levels were normalized to the highest signal of each pair of amidated and non-amidated peptides. Binding curves were fitted by least squares regression and half-maximal binding concentrations were extracted using Prism 9 (Graphpad) assuming one-site binding and no contribution from unspecific interaction. Competition binding assays were performed in the same way using a fixed ratio of 2 nM fluorescent probe and 200 nM FBXO31 and 0.67 nM to 100 μM competing ligand.

[1] = molecular target: T2, recombinant FBXO31/SKP1 complexes (Homo sapiens, UniProt Q5XUX0); experiment: Fluorescence polarization (FP) binding of fluorescein-labeled peptides to recombinant FBXO31/SKP1; conditions: wild type FBXO31/SKP1
T2 construct: histidine tag (Ulp1-cleavable) (cleaved yes); made in house; host or cells: bacteria (pET28b expression vector)
T2 sequence (Q5XUX0 whole entry): as the sequence (Q5XUX0 whole entry) above
T2 sequence (P63208 whole entry partner): as the sequence (P63208 whole entry partner) above
Experimental: It was then tested whether SCF/FBXO31 directly binds and ubiquitylates amidated clients, or whether it plays an indirect role in CTAP clearance. To this end, recombinant FBXO31 in complex with the binding partner SKP1 was purified and its affinity for various peptides was measured by fluorescence polarization (FP).
In this regard, it was first tested whether FBXO31 specifically binds C-terminal amides rather than side chain amides in asparagine or glutamine. […] Hydrophobic residues were most strongly bound, with X—F—CONH2 as the best substrate (KD≈6 nM), followed by other and then uncharged and charged hydrophilic side chains.
Codon-optimized CDNAs of SKP1 and FBXO31 were generated by gene synthesis (Integrated DNA Technologies) and cloned into the bacterial expression vector pET28b. Expression was performed at 18° C. overnight in presence of 0.5 mM IPTG. Following bacterial cell lysis by sonication in buffer NBA (200 mM NaCl, 50 mM HEPES, 25 mM imidazole, 5 mM DTT freshly added, pH 8.0), recombinant protein was enriched on a HisTrap FF column (Cytiva) by elution with 250 mM imidazole. […]
Increasing concentrations of recombinant FBXO31/SKP1 complexes were mixed with 20 nM fluorescein-labeled peptides in FPA-buffer (150 mM NaCl, 25 mM HEPES, pH 7.5) and incubated for 30 minutes at room temperature. Fluorescence polarization was measured on a Victor Nivo Plate Reader (Perkin Elmer). […]

Molecule	effect of inhibitor on destabilization of C-terminally amidated sfGFP (K562 cells)	also measured
NS(=O)(=O)OC[C@H]1C[C@@H](Nc2ccnc3cc(-c4cccc(SC(F)(F)F)c4)nn23)[C@H](O)[C@@H]1O [TAK243]	fully blunted	
CC[C@H](C)[C@H](NC(=O)[C@H]([C@@H](C)CC)N(C)C(C)=O)C(=O)N[C@H](C(=O)N[C@@H](CC(C)C)C(=O)[C@@]1(C)CO1)[C@@H](C)O [epoxomicin]	fully blunted	
Ser-Val-Val-NH2		displacement of fluorescent peptide probes from FBXO31 (FBXO31): efficiently displace
[Fluorescein]-KKYRYDVPDYSVV-NH2 (fluorescein-KKYRYDVPDYSVV-NH2) [FL-lib-SVV-NH2]		binding/affinity for FBXO31 (in words) [1]: high affinity
